In patent US20150065421A1, “BASAL INSULIN THERAPY” (SANOFI, priority 2012, published 2015):

Tests used:
[1] = Respective studies with other long-acting insulins; assay type: in vivo; conditions: no data given
Description: The results of the ORIGIN study were obtained with the long-lasting insulin glargine.

[2] = tested on: diabetic patients hospitalized with acute MI; conditions: IV insulin-glucose infusion then chronic insulin vs standard treatment; cited from earlier work
[3] = tested on: critical-care post-surgical patients; conditions: intervention group: insulin infusion to blood glucose 80-110 mg/dL; cited from earlier work

| Substance | results of respective studies compared with the ORIGIN results of insulin glargine [1] | reduction of all-cause mortality [2] [%] | overall mortality at twelve-months follow-up [3] [%] |
| --- | --- | --- | --- |
| insulin degludec | comparable results | – | – |
| insulin detemir | comparable results | – | – |
| insulin: insulin infusion or chronic insulin treatment in cited DIGAMI and Belgian ICU studies | – | 28 | 8.0 |
